Laboratory results as given in ChEMBL document CHEMBL4346705, “(±)-trans-Dihydronarciclasine and (±)-trans-dihydrolycoricidine analogues modified in their ring A: Evaluation of their anticancer activity and a SAR study” (2019).

What was measured:
Format in all cases: functional
[1] = tested on: NCI-H522; assay: Antiproliferative activity against human NCI-H522 cells assessed as cell viability at 10^-5 M incubated for 48 hrs by sulforhodamine B assay relative to control; conditions: NCI-H522, 48 h, read-out: Activity
[2] = tested on: MCF7; assay: Antiproliferative activity against human MCF7 cells assessed as cell viability at 10^-5 M incubated for 48 hrs by sulforhodamine B assay relative to control; conditions: MCF7, 48 h, read-out: Activity
[3] = tested on: U-251; assay: Antiproliferative activity against human U251 cells assessed as cell viability at 10^-5 M incubated for 48 hrs by sulforhodamine B assay relative to control; conditions: U-251, 48 h, read-out: Activity
[4] = tested on: A549; assay: Antiproliferative activity against human A549 cells assessed as cell viability at 10^-5 M incubated for 48 hrs by sulforhodamine B assay relative to control; conditions: A549, 48 h, read-out: Activity
[5] = tested on: SF-268; assay: Antiproliferative activity against human SF268 cells assessed as cell viability at 10^-5 M incubated for 48 hrs by sulforhodamine B assay relative to control; conditions: SF-268, 48 h, read-out: Activity
[6] = tested on: OVCAR-5; assay: Antiproliferative activity against human OVCAR5 cells assessed as cell viability at 10^-5 M incubated for 48 hrs by sulforhodamine B assay relative to control; conditions: OVCAR-5, 48 h, read-out: Activity
[7] = tested on: SNB-75; assay: Antiproliferative activity against human SNB75 cells assessed as cell viability at 10^-5 M incubated for 48 hrs by sulforhodamine B assay relative to control; conditions: SNB-75, 48 h, read-out: Activity
[8] = tested on: DU-145; assay: Antiproliferative activity against human DU145 cells assessed as cell viability at 10^-5 M incubated for 48 hrs by sulforhodamine B assay relative to control; conditions: DU-145, 48 h, read-out: Activity
[9] = tested on: SK-OV-3; assay: Antiproliferative activity against human SKOV3 cells assessed as cell viability at 10^-5 M incubated for 48 hrs by sulforhodamine B assay relative to control; conditions: SK-OV-3, 48 h, read-out: Activity
[10] = tested on: TK-10; assay: Antiproliferative activity against human TK10 cells assessed as cell viability at 10^-5 M incubated for 48 hrs by sulforhodamine B assay relative to control; conditions: TK-10, 48 h, read-out: Activity
[11] = tested on: OVCAR-3; assay: Antiproliferative activity against human OVCAR3 cells assessed as cell viability at 10^-5 M incubated for 48 hrs by sulforhodamine B assay relative to control; conditions: OVCAR-3, 48 h, read-out: Activity
[12] = tested on: LOX IMVI; assay: Antiproliferative activity against human LOXIMVI cells assessed as cell viability at 10^-5 M incubated for 48 hrs by sulforhodamine B assay relative to control; conditions: read-out: Activity
[13] = tested on: HL-60(TB); assay: Antiproliferative activity against human HL-60(TB) cells assessed as cell viability at 10^-5 M incubated for 48 hrs by sulforhodamine B assay relative to control; conditions: HL-60, 48 h, read-out: Activity
[14] = tested on: KM12; assay: Antiproliferative activity against human KM12 cells assessed as cell viability at 10^-5 M incubated for 48 hrs by sulforhodamine B assay relative to control; conditions: KM12, 48 h, read-out: Activity
[15] = tested on: PC-3; assay: Antiproliferative activity against human PC3 cells assessed as cell viability at 10^-5 M incubated for 48 hrs by sulforhodamine B assay relative to control; conditions: PC-3, 48 h, read-out: Activity
[16] = tested on: NCI-H322M; assay: Antiproliferative activity against human NCI-H322M cells assessed as cell viability at 10^-5 M incubated for 48 hrs by sulforhodamine B assay relative to control; conditions: read-out: Activity
[17] = tested on: SW-620; assay: Antiproliferative activity against human SW620 cells assessed as cell viability at 10^-5 M incubated for 48 hrs by sulforhodamine B assay relative to control; conditions: SW-620, 48 h, read-out: Activity
[18] = tested on: HOP-92; assay: Antiproliferative activity against human HOP92 cells assessed as cell viability at 10^-5 M incubated for 48 hrs by sulforhodamine B assay relative to control; conditions: HOP-92, 48 h, read-out: Activity
[19] = tested on: OVCAR-4; assay: Antiproliferative activity against human OVCAR4 cells assessed as cell viability at 10^-5 M incubated for 48 hrs by sulforhodamine B assay relative to control; conditions: OVCAR-4, 48 h, read-out: Activity
[20] = tested on: ACHN; assay: Antiproliferative activity against human ACHN cells assessed as cell viability at 10^-5 M incubated for 48 hrs by sulforhodamine B assay relative to control; conditions: read-out: Activity
[21] = tested on: NCI-H23; assay: Antiproliferative activity against human NCI-H23 cells assessed as cell viability at 10^-5 M incubated for 48 hrs by sulforhodamine B assay relative to control; conditions: NCI-H23, 48 h, read-out: Activity
[22] = tested on: MOLT-4; assay: Antiproliferative activity against human MOLT4 cells assessed as cell viability at 10^-5 M incubated for 48 hrs by sulforhodamine B assay relative to control; conditions: MOLT-4, 48 h, read-out: Activity
[23] = tested on: UACC-62; assay: Antiproliferative activity against human UACC62 cells assessed as cell viability at 10^-5 M incubated for 48 hrs by sulforhodamine B assay relative to control; conditions: UACC-62, 48 h, read-out: Activity
[24] = tested on: M14; assay: Antiproliferative activity against human M14 cells assessed as cell viability at 10^-5 M incubated for 48 hrs by sulforhodamine B assay relative to control; conditions: M14, 48 h, read-out: Activity
[25] = tested on: SN12C; assay: Antiproliferative activity against human SN12C cells assessed as cell viability at 10^-5 M incubated for 48 hrs by sulforhodamine B assay relative to control; conditions: read-out: Activity
[26] = tested on: HCT-15; assay: Antiproliferative activity against human HCT15 cells assessed as cell viability at 10^-5 M incubated for 48 hrs by sulforhodamine B assay relative to control; conditions: HCT-15, 48 h, read-out: Activity
[27] = tested on: SNB-19; assay: Antiproliferative activity against human SNB19 cells assessed as cell viability at 10^-5 M incubated for 48 hrs by sulforhodamine B assay relative to control; conditions: SNB-19, 48 h, read-out: Activity
[28] = tested on: T47D; assay: Antiproliferative activity against human T47D cells assessed as cell viability at 10^-5 M incubated for 48 hrs by sulforhodamine B assay relative to control; conditions: read-out: Activity
[29] = tested on: HT-29; assay: Antiproliferative activity against human HT-29 cells assessed as cell viability at 10^-5 M incubated for 48 hrs by sulforhodamine B assay relative to control; conditions: HT-29, 48 h, read-out: Activity
[30] = tested on: SF-539; assay: Antiproliferative activity against human SF539 cells assessed as cell viability at 10^-5 M incubated for 48 hrs by sulforhodamine B assay relative to control; conditions: SF-539, 48 h, read-out: Activity
[31] = tested on: UO-31; assay: Antiproliferative activity against human UO31 cells assessed as cell viability at 10^-5 M incubated for 48 hrs by sulforhodamine B assay relative to control; conditions: UO-31, 48 h, read-out: Activity
[32] = tested on: MDA-MB-435; assay: Antiproliferative activity against human MDA-MB-435 cells assessed as cell viability at 10^-5 M incubated for 48 hrs by sulforhodamine B assay relative to control; conditions: MDA-MB-435, 48 h, read-out: Activity

O=C1NC2C(CC(O)C(O)C2O)c2cc3c(cc21)OCCO3 (racemic)
viability at 10 µM [1]: 101%
viability at 10 µM [2]: 98.6%
viability at 10 µM [3]: 101%
viability at 10 µM [4]: 109%
viability at 10 µM [5]: 101%
viability at 10 µM [6]: 107%
viability at 10 µM [7]: 98.3%
viability at 10 µM [8]: 114%
viability at 10 µM [9]: 103%
viability at 10 µM [10]: 103%
viability at 10 µM [11]: 111%
viability at 10 µM [12]: 97.8%
viability at 10 µM [13]: 101%
viability at 10 µM [14]: 108%
viability at 10 µM [15]: 103%
viability at 10 µM [16]: 104%
viability at 10 µM [17]: 104%
viability at 10 µM [18]: 101%
viability at 10 µM [19]: 107%
viability at 10 µM [20]: 105%
viability at 10 µM [21]: 107%
viability at 10 µM [22]: 103%
viability at 10 µM [23]: 103%
viability at 10 µM [24]: 98.9%
viability at 10 µM [25]: 105%
viability at 10 µM [26]: 103%
viability at 10 µM [27]: 102%
viability at 10 µM [28]: 104%
viability at 10 µM [29]: 105%
viability at 10 µM [30]: 101%
viability at 10 µM [31]: 93.2%
viability at 10 µM [32]: 107%

CCOc1c(OC)cc2c(c1OCC)C(=O)NC1C2CC(O)C(O)C1O (racemic)
viability at 10 µM [1]: 88.9%
viability at 10 µM [2]: 95.2%
viability at 10 µM [3]: 100%
viability at 10 µM [4]: 94.2%
viability at 10 µM [5]: 91.3%
viability at 10 µM [6]: 108%
viability at 10 µM [7]: 92.4%
viability at 10 µM [8]: 110%
viability at 10 µM [9]: 105%
viability at 10 µM [10]: 97.1%
viability at 10 µM [11]: 103%
viability at 10 µM [12]: 97.6%
viability at 10 µM [13]: 86.6%
viability at 10 µM [14]: 102%
viability at 10 µM [15]: 93.3%
viability at 10 µM [16]: 98.6%
viability at 10 µM [17]: 106%
viability at 10 µM [18]: 84%
viability at 10 µM [19]: 103%
viability at 10 µM [20]: 104%
viability at 10 µM [21]: 99.9%
viability at 10 µM [22]: 80.9%
viability at 10 µM [23]: 95.7%
viability at 10 µM [24]: 99.1%
viability at 10 µM [25]: 101%
viability at 10 µM [26]: 102%
viability at 10 µM [27]: 103%
viability at 10 µM [28]: 106%
viability at 10 µM [29]: 99.6%
viability at 10 µM [30]: 106%
viability at 10 µM [31]: 81.8%
viability at 10 µM [32]: 105%
